For assay [1], the target named is Replicase polyprotein 1ab (Severe acute respiratory syndrome coronavirus 2) (UniProt P0DTD1). Briefly: Inhibition of SARS-Cov-2 Main protease at <=500 uM by FRET assay.
Assay [2] addresses Replicase polyprotein 1ab (Severe acute respiratory syndrome coronavirus 2, UniProt P0DTD1). The assay can be described thus: Inhibition of SARS-Cov-2 Main protease by FRET assay.
In assay [3] the target is Replicase polyprotein 1ab (Severe acute respiratory syndrome coronavirus 2) (UniProt P0DTD1). Briefly: Uncompetitive inhibition of SARS-Cov-2 Main protease by Lineweaver-Burk plot analysis.
Another assay deals with T1, Cathepsin K (Homo sapiens, UniProt P43235).
T1 sequence (P43235 whole entry): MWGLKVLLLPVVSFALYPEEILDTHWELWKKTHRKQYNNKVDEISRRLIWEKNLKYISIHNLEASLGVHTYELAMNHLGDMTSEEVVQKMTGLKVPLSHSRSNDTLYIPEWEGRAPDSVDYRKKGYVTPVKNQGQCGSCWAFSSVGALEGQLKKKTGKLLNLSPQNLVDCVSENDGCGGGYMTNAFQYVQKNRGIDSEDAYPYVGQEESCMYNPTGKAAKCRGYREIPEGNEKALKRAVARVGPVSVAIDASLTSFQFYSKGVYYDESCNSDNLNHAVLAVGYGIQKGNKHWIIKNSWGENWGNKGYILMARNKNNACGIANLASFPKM
The assay can be described thus: Inhibition of human Cathepsin K.

Each structure is given as a SMILES string. Active and inactive are the calls of the source. The calls are words filed in the database; no cut-off is given here.

Turning to `NC(=O)[C@@H]1CC[C@@H]2CN1C(=O)N2OS(=O)(=O)O`, in assay [1], the inhibition entry was “inactive”.

On to `N[C@H]1CN2CC(C(=O)N(Cc3ccccc3)Cc3ccccc3)=C(C(=O)O)N2C1=O`, for which the IC50 (as a rule, the concentration at which inhibition is half-maximal) in assay [2] was more than 500 µM. Besides, in assay [1], the inhibition result is “inactive”.

Turning to `O=C(O)C1=C(Cl)CS[C@@H]2[C@H](NC(=O)[C@H](Cc3ccccc3)NC(=O)c3cc4ccccc4[nH]3)C(=O)N12`, the IC50 in assay [2] is 90 µM.

`CN(Cc1ccccc1)C(=O)C1=C(C(=O)O)N2C(=O)[C@@H](NC(=O)[C@H](Cc3ccccc3)NC(=O)c3cc4ccccc4[nH]3)CN2C1`: the IC50 in assay [2] was more than 500 µM.

`O=C(O)C1=C(C(=O)NCc2ccccc2)CN2C[C@H](NC(=O)[C@H](Cc3ccccc3)NC(=O)c3cc4ccccc4[nH]3)C(=O)N12`: 178 µM corresponded to half-maximal inhibition in assay [2] (IC50).

`CCC1C(=O)N(S(C)(=O)=O)CC1C(=O)OC` (racemic; 10): the inhibition result in assay [1] is “inactive”.

As for `O=C(O)C1=C(C(=O)N(Cc2ccccc2)Cc2ccccc2)CN2C[C@H](NC(=O)[C@H](Cc3ccccc3)NC(=O)c3cc4ccccc4[nH]3)C(=O)N12`, the inhibition result in assay [3] was “Active”. The IC50 in assay [2] was 45 µM; on Cathepsin K, 64 µM.

With `CCN(CC)C(=O)C1=C(C(=O)O)N2C(=O)[C@@H](NC(=O)[C@H](Cc3ccccc3)NC(=O)c3cc4ccccc4[nH]3)CN2C1`, half-maximal inhibition in assay [2] (IC50) required 279 µM.

On to `C[C@@H](O)[C@H]1C(=O)N2C(C(=O)O)=C([C@H]3CCCO3)S[C@H]12`, for which the inhibition result in assay [1] was “inactive”.

`O=C(O)C1=C(C(=O)N(Cc2ccccc2)Cc2ccccc2)CN2C[C@H](NC(=O)[C@H](C[C@@H]3CCNC3=O)NC(=O)[C@H](Cc3ccccc3)NC(=O)c3cc4ccccc4[nH]3)C(=O)N12` displayed an IC50 in assay [2] of 163 µM.

Regarding `C[C@H]1[C@H](NC(=O)[C@H](Cc2ccccc2)NC(=O)c2cc3ccccc3[nH]2)C(=O)N1S(=O)(=O)O`, the IC50 in assay [2] is more than 500 µM.

Take `N[C@@H]1CONC1=O`: the inhibition result in assay [1] is “inactive”.

In turn, `CC1(C)S[C@@H]2[C@H](NC(=O)[C@H](Cc3ccccc3)NC(=O)c3cc4ccccc4[nH]3)C(=O)N2[C@H]1C(=O)O` yielded an IC50 in assay [2] of 134 µM.

Turning to `CC1(C)[C@H](C(=O)O)N2C(=O)C[C@H]2S1(=O)=O`, the inhibition entry in assay [1] was “inactive”.

As for `O=C(O)C1=C(C(=O)NCc2ccncc2)CN2C[C@H](NC(=O)[C@H](Cc3ccccc3)NC(=O)c3cc4ccccc4[nH]3)C(=O)N12`, the IC50 in assay [2] was 201 µM.

In the case of `C[C@@H](O)[C@H]1C(=O)N2C(C(=O)O)=C(SCCNC=N)C[C@H]12`, the inhibition entry in assay [1] is “inactive”.

`O=C(O)C1=C(C(=O)N2CCCC2)CN2C[C@H](NC(=O)[C@H](Cc3ccccc3)NC(=O)c3cc4ccccc4[nH]3)C(=O)N12` showed an IC50 in assay [2] of 181 µM.

As to `C=CCOC(=O)C1=C(C(=O)O)N2C(=O)[C@@H](NC(=O)[C@H](Cc3ccccc3)NC(=O)c3cc4ccccc4[nH]3)CN2C1`, the IC50 in assay [2] came out at 192 µM.

In the case of `C[C@H]1[C@H](N)C(=O)N1S(=O)(=O)O`, in assay [1], the inhibition result is “inactive”.

With `CCC1C(=O)N(S(C)(=O)=O)CC1C(=O)OC` (racemic; 11), in assay [1], the inhibition result is “inactive”.

As for `N[C@@H]1C(=O)N2C(C(=O)O)=C(Cl)CS[C@H]12`, in assay [1], the inhibition entry is “inactive”.

As to `CC1(C)S[C@@H]2[C@H](N)C(=O)N2[C@H]1C(=O)O`, the inhibition result in assay [1] is “inactive”.

In the case of `O=C(N[C@@H](Cc1ccccc1)C(=O)N[C@@H]1CONC1=O)c1cc2ccccc2[nH]1`, the IC50 in assay [2] was more than 500 µM.

The molecule `O=C(N[C@@H](Cc1ccccc1)C(=O)O)c1cc2ccccc2[nH]1` registered an IC50 in assay [2] of more than 500 µM.

(Values after ChEMBL document CHEMBL5390251, “Pyrazolidinone-based peptidomimetic SARS-CoV-2 Mpro inhibitors” (Bioorg Med Chem Lett, 2023).)
